Measured values as given in article PMC11930087, “Mobility of four structural regions drives isoform-specific properties of photoenzyme LPOR in plants” (The Journal of Biological Chemistry, 2025).
Where two headings read alike, the source gives them in different places.

Columns and labels:
HaPOR1 = target: T1, HaPOR1 (Helianthus annuus, UniProt A0A251T841); assay: biochemical; settings: 400 uM OPT lipids, 5 uM Pchlide, 15 uM LPOR
T1 construct: gene PORA; transit peptide removed; pET15b
T1 sequence (A0A251T841 64-398): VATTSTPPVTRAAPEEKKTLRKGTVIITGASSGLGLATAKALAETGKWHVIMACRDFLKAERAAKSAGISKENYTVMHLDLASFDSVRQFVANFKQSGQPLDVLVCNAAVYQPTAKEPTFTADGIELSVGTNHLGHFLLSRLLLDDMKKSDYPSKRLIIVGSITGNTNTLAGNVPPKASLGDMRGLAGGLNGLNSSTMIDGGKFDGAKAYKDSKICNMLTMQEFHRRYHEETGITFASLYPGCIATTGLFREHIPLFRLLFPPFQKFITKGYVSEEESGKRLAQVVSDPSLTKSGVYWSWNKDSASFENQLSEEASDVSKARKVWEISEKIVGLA
Method: (§1) (Figs. 3A, S2). […] The resulting plots resembled saturation curves, to which a hyperbolic function similar to the Michaelis–Menten equation could be fitted (Figs. 3B, S3, Materials and Methods). […] However, KM^L values were consistently lower than KM^D values. […] The addition of 400 μM OPT lipids lowered the KM^D constant for all isoforms, except for SlPOR1, SlPOR3, HaPOR1, HaPOR2, and PeaPOR, where the constant remained unchanged within error estimates. […] Shaded areas represent the SD between replicates. […] A fit of a modified Michaelis–Menten equation is shown, along with the graphical representation of KM^D (B) or KM^L (C). Spectra corresponding to the given F648/F635 values (B) or F Chlide/F Pchlide values (C) are shown on the right side of the plot. D, relationship between KM^D and KM^L for investigated isoforms. The overall distribution of data points is shown in gray. Error bars represent the uncertainty associated with the fitted constant KM^x. Closed symbols represent constants determined for samples not supplemented with lipids, while open symbols these determined in the presence of 400 μM OPT lipids. LPOR, light-dependent protochlorophyllide oxidoreductase; Pchlide, protochlorophyllide; Chlide, chlorophyllide.

PinPOR = target: T2, PinPOR (Pinus mugo, UniProt Q41202); assay: biochemical; settings: 5 uM Pchlide, 15 uM LPOR
T2 construct: transit peptide removed; pET15b
T2 sequence (Q41202 67-400): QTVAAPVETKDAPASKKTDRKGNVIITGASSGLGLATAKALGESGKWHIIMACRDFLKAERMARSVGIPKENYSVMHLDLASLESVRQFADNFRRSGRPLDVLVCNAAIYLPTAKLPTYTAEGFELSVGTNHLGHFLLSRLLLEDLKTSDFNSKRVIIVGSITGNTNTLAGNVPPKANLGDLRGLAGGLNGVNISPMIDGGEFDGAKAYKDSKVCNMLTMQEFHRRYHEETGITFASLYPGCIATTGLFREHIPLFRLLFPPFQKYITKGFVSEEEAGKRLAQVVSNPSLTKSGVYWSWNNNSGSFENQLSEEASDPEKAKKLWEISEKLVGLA
Method: as §1

TaPOR1 = target: T3, TaPOR1 (Triticum aestivum, UniProt Q41578); assay: biochemical; settings: 5 uM Pchlide, 15 uM LPOR
T3 construct: gene PORA
T3 sequence (Q41578 75-388): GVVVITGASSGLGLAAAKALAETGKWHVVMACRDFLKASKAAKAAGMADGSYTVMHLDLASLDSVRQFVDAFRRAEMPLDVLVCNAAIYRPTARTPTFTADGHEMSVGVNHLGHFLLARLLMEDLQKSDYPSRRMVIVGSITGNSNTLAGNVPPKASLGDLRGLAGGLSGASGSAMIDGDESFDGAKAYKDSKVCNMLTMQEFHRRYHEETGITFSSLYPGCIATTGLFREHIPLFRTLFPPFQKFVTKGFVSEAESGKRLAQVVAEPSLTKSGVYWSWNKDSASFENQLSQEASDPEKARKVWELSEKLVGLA
Method: as §1

HaPOR2 = target: T4, HaPOR2 (Helianthus annuus, UniProt A0A251TWA4); assay: biochemical; settings: 5 uM Pchlide, 15 uM LPOR
T4 construct: gene PORA; transit peptide removed; pET15b
T4 sequence (A0A251TWA4 53-387): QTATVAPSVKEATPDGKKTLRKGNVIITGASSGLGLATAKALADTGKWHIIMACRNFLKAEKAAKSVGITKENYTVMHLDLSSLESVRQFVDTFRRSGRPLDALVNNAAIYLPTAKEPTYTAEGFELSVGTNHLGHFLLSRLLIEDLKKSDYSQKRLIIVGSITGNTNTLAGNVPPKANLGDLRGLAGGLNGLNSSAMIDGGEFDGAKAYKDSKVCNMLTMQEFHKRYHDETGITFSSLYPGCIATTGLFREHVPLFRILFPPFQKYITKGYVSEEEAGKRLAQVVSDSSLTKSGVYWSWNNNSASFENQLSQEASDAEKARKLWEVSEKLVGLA
Method: as §1

SlPOR1 = target: T5, SlPOR1 (Solanum lycopersicum, UniProt A0A3Q7HEX8); settings: 5 uM Pchlide, 15 uM LPOR, binder
T5 construct: gene POR2; transit peptide removed; pET15b
T5 sequence (A0A3Q7HEX8 65-399): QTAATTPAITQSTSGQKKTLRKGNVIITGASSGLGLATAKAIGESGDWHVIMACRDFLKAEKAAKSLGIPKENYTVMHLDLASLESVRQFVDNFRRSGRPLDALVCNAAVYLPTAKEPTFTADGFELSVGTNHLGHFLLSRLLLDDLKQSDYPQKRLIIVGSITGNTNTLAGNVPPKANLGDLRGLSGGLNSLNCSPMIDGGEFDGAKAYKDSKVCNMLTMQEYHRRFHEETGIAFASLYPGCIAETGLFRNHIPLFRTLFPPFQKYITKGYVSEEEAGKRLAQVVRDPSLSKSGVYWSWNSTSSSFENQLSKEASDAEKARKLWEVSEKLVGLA
Method: as §1

SlPOR3 = target: T6, SlPOR3 (Solanum lycopersicum, UniProt A0A3Q7J565); settings: 5 uM Pchlide, 15 uM LPOR, binder
T6 construct: gene LOC101248079; transit peptide removed; pET15b
T6 sequence (A0A3Q7J565 63-397): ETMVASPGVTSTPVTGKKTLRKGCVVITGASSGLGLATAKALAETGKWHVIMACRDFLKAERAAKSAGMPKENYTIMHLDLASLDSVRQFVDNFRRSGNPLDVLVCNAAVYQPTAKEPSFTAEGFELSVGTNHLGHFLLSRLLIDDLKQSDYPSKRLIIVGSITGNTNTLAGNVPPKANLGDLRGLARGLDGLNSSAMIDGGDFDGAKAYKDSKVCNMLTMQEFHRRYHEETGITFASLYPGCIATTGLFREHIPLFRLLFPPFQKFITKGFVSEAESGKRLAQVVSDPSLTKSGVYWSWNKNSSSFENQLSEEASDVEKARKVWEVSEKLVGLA
Method: as §1

- apparent Michaelis constant KM^D (dark) (HaPOR1): 16.9 µM
- Michaelis constant, dark (KM^D) (PinPOR; 400 uM OPT lipids): 1.3 µM
- apparent Michaelis constant in dark (KM^D) (PinPOR; no lipids): 4.3 µM
- Km (apparent, dark, KM^D) (TaPOR1; 400 uM OPT lipids): 45.8 µM
- apparent Michaelis constant (KM^D) (TaPOR1; no lipids, dark): 394 µM
- Dark Michaelis-like constant (KM^D) (HaPOR2; 400 uM OPT lipids): 2.2 µM
- apparent Michaelis constant in the dark (KM^D) (HaPOR2; no lipids): 9.4 µM
- apparent Michaelis constant in the dark (KM^D) (SlPOR1; 400 uM OPT lipids): 7.2 µM
- apparent Michaelis constant in the dark (KM^D) (SlPOR1; no lipids): 8.6 µM
- apparent Michaelis constant in dark (KM^D) (SlPOR3; 400 uM OPT lipids): 3 µM
- apparent KM (dark, KM^D) (SlPOR3; no lipids): 4.9 µM
SMILES: NC(=O)C1=CN([C@@H]2O[C@H](COP(=O)(O)OP(=O)(O)OC[C@H]3O[C@@H](n4cnc5c(N)ncnc54)[C@H](OP(=O)(O)O)[C@@H]3O)[C@@H](O)[C@H]2O)C=CC1 [NADPH]
